Results: PMC7472781, “Inherited and Acquired Determinants of Hepatic CYP3A Activity in Humans” (Frontiers in Genetics, 2020)
Marks after values point to notes of the source that are not given here.

Columns and labels:
CYP3A [1] = experiment: Within- and between-subject variance and genetic component (Kalow) of the 4 CYP3A biomarkers, three occasions; conditions: for Genetic component: from intra- and inter-individual variation, independent of twin status, AUC, plasma concentration or 24-h urine Ae
Experimental: (§1) Predefined primary endpoint was midazolam AUC. All concentrations and pharmacokinetic parameters were determined on three independent occasions to compare intra- versus interindividual variation. […] In structural equation modeling of heritability and in the other multifactorial analyses the individual means from the measurements or parameters obtained on the three occasions were used. Using structural equation analysis, variation was separated into additive genetic (A), common environmental (C), and unique environmental (E) effects. The heritability is the proportion of the variance resulting from the genetic effect (A). In order to investigate the genetic, common environmental, and unique environmental effects of the different traits taken into account, the possible correlation between traits were fitted in multivariate ACE, AE, and CE biometrical models using the mcglm package for multivariate regression analysis in R. As an exploratory analysis, we computed the correlation between MZ and DZ twins based on an unstructured (equal mean and variance for MZ and DZ twins) model. In all models, the mean structure for each trait was specified as a linear function of the covariates age and sex.

CYP3A [2] = experiment: Multifactorial analysis of genetic and environmental effects on the CYP3A probe drugs and biomarkers; conditions: in vivo
Experimental: DNA was isolated from whole venous blood by automated solid phase extraction with the EZ1^TM DNA Blood 350 μl Kit using the Bio-robot EZ1^TM (both Qiagen, Hilden, Germany). The CYP3A4^∗1b and ^∗22 alleles as well as the CYP3A5^∗1/^∗3 polymorphism were genotyped by DNA sequencing using fluorescence-labeled dideoxynucleotides and detection via Gene Mapper v3.7 Software® (Applied Biosystems®, Foster City, United States). Zygosity was assessed by analyzing variants in 23 polymorphic genes. Monozygosity was concluded when there were no differences regarding the polymorphisms in both siblings of one twin pair.
as §1

CYP3A [3] = conditions: in vivo
Experimental: Cholesterol and 4ß-OH cholesterol were measured in the baseline blood samples before drug administration. All samples were centrifuged for 10 min (4000 rpm) at 4°C and the plasma was stored at −20°C.
Calibration samples for cholesterol were prepared in isooctane with 10% 2-propanol in the concentration range from 1 to 30 μg. Calibration samples for 4ß-hydroxycholesterol were prepared in isooctane with 0.8% 2-propanol from 5 to 100 ng. […] Calibration samples were worked up as the samples, and analyzed together with the unknown samples. […] The concentration in unknown samples was obtained from the regression line.

CYP3A [4] = experiment: Twin correlations and structural equation modeling (ACE, AE, CE) of heritability of the CYP3A biomarkers
Experimental: as §1

[5] = ref Heizmann et al., 1983; cited from earlier work
CYP3A [6] = experiment: clinical; conditions: for AUC: 0.2 mg midazolam i.v., zero to infinity; for AUC420: dose to 420 min
Experimental: Midazolam was administered as a 2 min intravenous infusion with a total dose of 0.2 mg. The phenotyping test with midazolam was performed on three different occasions with a time interval of at least 1 week and maximally 3 months.
Pharmacokinetic parameters were estimated by non-compartmental analyses using the WinNonlin software (Pharsight Corporation, Mountain View, United States). The AUC from zero to infinity (AUC), was calculated by the linear/log trapezoidal rule and using the terminal elimination rate constant (lambda z). […] Total plasma clearance (Cl) after administration of midazolam was calculated as the ratio dose over AUC. Time (tmax) and amount of maximum plasma concentration (Cmax) were given as measured and the terminal half-life (t1/2) was calculated as t1/2 = ln(2)/lambda z.

C[C@]12CCC(=O)C=C1[C@@H](O)C[C@@H]1[C@@H]2[C@@H](O)C[C@@]2(C)[C@H]1CC[C@]2(O)C(=O)CO [6ß-OH-cortisol, 6-ß-hydroxycortisol]
Genetic component (CYP3A [1]): 0.457
Variance between subjects (Varb) of Ae (24-h-urine) (CYP3A [1]; human, in vivo): 8141 μg/24 h
Variance within subjects (Varw) of Ae (24-h-urine) (CYP3A [1]; three occasions): 4247 μg/24 h
Coefficient, CYP3A4*22 (CYP3A [2]): −127.40
Coefficient, CYP3A5*3 (CYP3A [2]): 0.70
Coefficient, age (CYP3A [2]): 0.94
Coefficient, lean body weight (CYP3A [2]): −1.35
Coefficient, sex (CYP3A [2]): −9.28
Coefficient, smoking status (CYP3A [2]): −8.66
Coefficient, oral contraceptives (CYP3A [2]): 3.37
Ae (24-h-urine), mean (CYP3A [3]): 222 μg/24 h
Variation due to additive genetic (inherited) effects (CYP3A [4]; in vivo): 31%
rdz (correlation between DZ twins) (CYP3A [4]; in vivo): 0.50 (0.13)*
rmz (correlation between MZ twins) (CYP3A [4]; in vivo): 0.68 (0.06)*

Cc1ncc2n1-c1ccc(Cl)cc1C(c1ccccc1F)=NC2 [Midazolam, midazolam]
Genetic component (CYP3A [1]): 0.612
Variation that may be due to genetic factors (from genetic component) (CYP3A [1]; human, in vivo): up to 61%
Coefficient, CYP3A4*22 (CYP3A [2]; human): 169.57
Coefficient, CYP3A5*3 (CYP3A [2]; human): 32.33
Coefficient, age (CYP3A [2]; human): −0.60
Coefficient, sex (CYP3A [2]; human): 74.51
Coefficient, lean body weight (CYP3A [2]; human, 0.2 mg): −7.29
Coefficient, smoking status (CYP3A [2]; human, 0.2 mg): −21.79
Coefficient, oral contraceptives (CYP3A [2]; human, 0.2 mg): −63.18
Fraction of midazolam eliminated as 1-OH-midazolam [5]: Approximately 75%
C^2 (common environmental effect) (CYP3A [4]; ACE model): 0.48 (0.24)*
H^2 (heritability) (CYP3A [4]; ACE model): 0.15 (0.25)
Variation attributed to common environmental factors (CYP3A [4]; ACE model): 48%
Variation due to additive genetic (inherited) effects (CYP3A [4]; ACE model): 15%
H^2 (heritability) (CYP3A [4]; AE model): 0.63 (0.06)*
C^2 (common environmental effect) (CYP3A [4]; CE model): 0.60 (0.06)*
rdz (correlation between DZ twins) (CYP3A [4]; unstructured model): 0.52 (0.13)*
rmz (correlation between MZ twins) (CYP3A [4]; unstructured model): 0.66 (0.06)*
Median AUC (CYP3A [6]; *1/*1 and *1/*1B genotypes (n = 110)): 439.1 μg ∗ min/L
AUC (CYP3A [6]; DZ twins, value (range)): 431.0 (287.8 – 640.7) μg * min/L
AUC420 (CYP3A [6]; DZ twins, value (range)): 354.8 (240.0 – 542.9) μg * min/L
tmax (CYP3A [6]; DZ twins, value (range)): 10 (10 – 19) min
AUC (CYP3A [6]; MZ twins, value (range)): 450.3 (290.3 – 897.4) μg * min/L
AUC420 (CYP3A [6]; MZ twins, value (range)): 378.6 (255.8 – 636.4) μg * min/L
AUC, inter-individual range (CYP3A [6]; all subjects): 288 – 897.4 μg∗min/L
Inter-individual variation in AUC (CYP3A [6]; all subjects): 3.1 fold
AUC, mean (CYP3A [6]; all subjects, three occasions): 464.0 µg·min/L
Median AUC (CYP3A [6]; daily fruit consumption): 425.4 μg ∗ min/L
Median AUC (CYP3A [6]; heterozygous carriers of CYP3A4*22 (n = 4)): 595.1 μg ∗ min/L
tmax (CYP3A [6]; human, plasma, intravenous, 0.2 mg): 0.167 h
clearance (CYP3A [6]; human, plasma, intravenous, 0.2 mg, Cl, DZ twins, total plasma clearance, value (range)): 480 mL/min
clearance (CYP3A [6]; human, plasma, intravenous, 0.2 mg, Cl, DZ twins, value (range)): 6.74 mL/min/kg
clearance (CYP3A [6]; human, plasma, intravenous, 0.2 mg, Cl, MZ twins, total plasma clearance, value (range)): 450 mL/min
clearance (CYP3A [6]; human, plasma, intravenous, 0.2 mg, Cl, MZ twins, value (range)): 6.8 mL/min/kg
clearance (CYP3A [6]; human, plasma, intravenous, 0.2 mg, Clearance, summary in discussion (Table 2)): ~500 mL/min
Cmax (CYP3A [6]; human, plasma, intravenous, 0.2 mg, DZ twins, value (range)): 3.76 ng/mL
Cmax (CYP3A [6]; human, plasma, intravenous, 0.2 mg, MZ twins, value (range)): 4.11 ng/mL
half-life (CYP3A [6]; human, plasma, intravenous, 0.2 mg, Elimination half-life, summary in discussion (Table 2)): ~2 h
half-life (CYP3A [6]; human, plasma, intravenous, 0.2 mg, t1/2, DZ twins, terminal half-life, value (range)): 3.08 h
half-life (CYP3A [6]; human, plasma, intravenous, 0.2 mg, t1/2, MZ twins, terminal half-life, value (range)): 2.72 h
AUC higher in male than in female subjects (CYP3A [6]; median): 8%
Variation of plasma concentrations between subjects (CYP3A [6]; one study day, all subjects): about 10 fold
Median AUC (CYP3A [6]; rare fruit consumption): 519.4 μg ∗ min/L
Intra-individual (between-days) mean coefficient of variation (CYP3A [6]; three occasions): 11.3%
Median AUC (CYP3A [6]; thrice weekly fruit consumption): 446.9 μg ∗ min/L
Median AUC (CYP3A [6]; very rare fruit consumption): 558.9 μg ∗ min/L
